Experimental findings from patent publication US20250296961A1, “ANTIMICROBIAL PEPTIDES FOR REMINERALIZATION OF TEETH AND PREVENTION OF DENTAL CARIES” (The University of Hong Kong, priority 2021, published 2025) are described below.

For assay [1], the system named is S. mutans. Description: Anti-planktonic bacterial ability, MBC (Example 2). It counts as cell-based, S. mutans (ATCC 35668). How it is done: (§1) S. mutans (ATCC 35668, ATCC, Manassas, USA), S. gordonii (ATCC 35105, ATCC, Manassas, USA), and S. sanguinis (ATCC 10556, ATCC, Manassas, USA) strains were cultured in brain-heart infusion broth (BHI, Difco Laboratories, Detroit, USA) at 37° C. under anaerobic conditions (85% N2, 10% H2, and 5% CO2). Bacteria were harvested by centrifugation (5000 rpm, 10 min), washed once with sodium phosphate-buffered saline (PBS, 10 mM, pH=7.2), and resuspended in BHI at a concentration of 1×10^6 CFU mL^−1.
(§2) Each well was seeded with 10 μL S. mutans suspension, S. gordonii suspension, and S. sanguinis suspension, respectively. […] The bacterial growth was assessed by measuring the absorbance at 595 nm using a microplate reader after a 24-hour incubation. Subsequently, 10 μL of bacterial suspension from each well were plated on horse blood agar plates and incubated at 37° C. for 48 h. The antibacterial activities of AMPs were evaluated.

Assay [2] is described as follows: Adsorption time assay on tooth enamel (Micro BCA). The class given is binding, human. Conditions: 10 nmol/mL peptide, 37° C. How it is done:
3×3×1.5 mm^3 (number: 197) tooth slices were prepared using a water-cooled diamond saw (IsoMet low-speed saw, Buehler, Lake Bluff, IL, USA). One working surface of complete enamel tissue from each tooth slice was generated using the MicroCT Skyscan 1172 (Bruker MicroCT, Kontich, Belgium). The enamel working side of the tooth slice was polished and other sides marked with acid-proof nail polish. All tooth slices were cleaned and stored in deionized water at 4° C.
Adsorption Time Assay The adsorption time of peptides to the tooth enamel was also tested using the Micro BCA method. Solutions of P-113, P-113-DPS, P-113-DA, and P-113-SK in 10 mM HEPES buffer (pH 7) were diluted to 10 nmol/mL. Enamel working surfaces of tooth slices (N=20) were exposed to P-113 solution (n=5), P-113-DPS solution (n=5), P-113-DA solution (n=5), and P-113-SK solution (n=5), respectively. The remaining extraneous surfaces were covered with wax. Tubes were placed into a rotator at 37° C. […] After a 30-min incubation, absorbance was measured. A function of C=a*A+b was determined (a and b are constants). The concentrations of the peptide solution at different time points (C0, C1, C2, C3, C4, and C5 at 0, 5, 20, 40, 60, and 120 min, respectively) were computed based on absorbances […].

Assay [3] has as its system S. mutans biofilms. It counts as cell-based. How it is done: (§3) Streptococcus mutans (ATCC 35668, ATCC, Manassas, USA) were cultured in Horse Blood Medium under anaerobic (85% N2, 10% H2, and 5% CO2) conditions at 37° C. Cells were harvested by centrifugation (5000 rpm, 10 min), washed once with 10 mM sodium phosphate-buffered saline (PBS, pH 7.2), and resuspended in brain-heart infusion broth (BHI, Difco Laboratories, Detroit, USA) at a concentration of 10^6 CFU/mL.
S. mutans biofilms were cultured on enamel working surfaces in a 96-well plate. Tooth slices (N=32) were autoclave-sterilized prior to anti-biofilm activity testing. 200 μL S. mutans in BHI (10^6 CFU/mL) was added to each well. After a 24-h incubation at 37° C., each tooth slice was washed once with PBS. […] (in 10 mM HEPES). After incubation, tooth slices were washed once with PBS. One tooth slice at random in each group was stained with the LIVE/DEAD BacLight Bacterial Viability Kit (L7012, Thermo Fisher Scientific, Waltham, USA) and incubated in the dark for 30 min. Fluorescence images were obtained using confocal laser scanning microscopy (CLSM, Fluoview 1000, Olympus, USA). A separate tooth slice was used for the counting of colony-forming units (CFU). Tooth slices were placed in 1 mL BHI solution, and adherent biofilms were removed from the enamel surfaces by sonication for 30 sec. Ten-fold serial dilutions of the suspensions were plated in duplicate on horse blood agar. CFU's were counted after 48-h incubation. Three independent biofilm experiments were performed.

Assay [4] concerns S. mutans. The assay can be described thus: Anti-planktonic bacterial ability, MIC and MBC (Example 1). The class given is cell-based, Streptococcus mutans (ATCC 35668). How it is done:
as §3
Two-fold serial dilutions (in 10 mM HEPES) of P-113, P-113-DPS, P-113-DA, P-113-SK, and Sp-H5 prepared in 25% BHI medium were pipetted into a 96-well cell culture plate at final concentrations from 0.125-128 μmol/mL [100 μL/well]. Each well was seeded with 10 μL bacterial suspension at a final concentration of 10^6 CFU/mL. Sp-H5 with bacterial cells and 25% BHI medium with and without bacterial cells in 10 mM HEPES buffer (pH 7) were used as the positive, negative, and blank control group, respectively. After a 24-h incubation, absorbance was measured at 595 nm using a microplate reader to assess cell growth. […] The minimal bactericidal concentration (MBC) was defined as the lowest concentration of peptide resulting in no colony formation on agar plates after incubation. 10 μL of cell suspension from each well were plated on horse blood agar plates and incubated at 37° C. for 48 h. All determinations were conducted in triplicate experiments.

Assay [5] concerns S. sanguinis. Description: Anti-planktonic bacterial ability, MBC (Example 2). It counts as cell-based, S. sanguinis (ATCC 10556). How it is done: as §1, §2

Where two headings read alike, the source gives them in different places.

With “AKRHHGYKRKFH [Peptide P-113, non-specific AMP, portion of human histatin 5]”, the “MBC, S. mutans” value in assay [1] is reported as above 128 μM mL^−1. In addition, the “Adsorption time on enamel (majority of adsorption / significant decrease in concentration)” value in assay [2] is 60 min. Besides, the “S. mutans killed (biofilm)” value is reported as 79% in assay [3] (128 μmol/mL, 24 h exposure) and 87% in assay [3] (160 μmol/mL). Further, in assay [3] (24 h, concentration not given), the “CLSM live/dead state of S. mutans biofilm” value was “the majority of S. mutans in BHI and P-113 were alive”. Besides, in assay [4], the MBC is listed as above 128 μM mL^−1. The same sequence displayed an MIC in assay [4] (24 h) of 32 μM mL^−1. The “MBC, S. sanguinis” value in assay [5] was above 128 μM mL^−1.
